Laboratory results: patent publication US11866704B2, “Nucleic acid molecules and uses thereof” (Macau University of Science and Technology, priority 2020, dated 2024)
[s4U] = 4-thiouridine base; m = 2'-O-methyl; r = 2'-OH (RNA)

B1: tRNA-Leu(CAG): tRNA purified from Escherichia coli MRE600 total tRNA, SEQ ID NO: 218 (nucleic acid, listed as Escherichia coli)
chain: GCGAAGGUGGCGGAANNGGNAGACGCGCUAGCUUCAGGNGNUAGUGUCCUUACGGACGUGGGGGUNCAAGUCCCCCCCCUCGCACCA
modifications: expressed or natural sequence
B2: tRNA-Val(UAC): tRNA purified from Escherichia coli MRE600 total tRNA, SEQ ID NO: 237 (nucleic acid, listed as Escherichia coli)
chain: GGGUGAUUAGCUCAGCDGGGAGAGCACCUCCCUUACAAGGAGGGGGUCGGCGGUNCGAUCCCGUCAUCACCCACCA
modifications: expressed or natural sequence

How the values were obtained:
LoVo cells [1] = assay: Clonogenic assay on LoVo cells; assay type: cell-based; conditions: 25 nM, vs control group
Description: (§1) HCT-8, fluorouracil-resistant HCT-8, fluorouracil-resistant LoVo cell lines were cultured in RPMI Medium 1640 medium containing 10% FBS and 1% penicillin/streptomycin. LoVo cell line was cultured in F-12K medium containing 10% FBS and 1% penicillin/streptomycin. All cell lines above were cultured at humidified atmosphere containing 5% CO2 at 37° C.
(§2) In the clonogenic assay, HCT-8 or LoVo cells were plated in 6-well microplate at a density of 1000 cells per well in 2 mL of culture medium and allowed to adhere for 24 h before treatment. Single concentration of RNA molecules obtained in Example 1 to 4 in a mixture containing a gene delivery carrier, i.e. Lipofectamine™ RNAiMAX Transfection Reagent (Thermo Fisher Scientific, U.S.A.) were then added to the cells. After treated for 48 h, discarded the drug solutions and replaced with 2 mL of fresh culture medium. After culture 14 days, discarded the culture medium and the cells were fixated with 4% paraformaldehyde fix solution for 20 min, followed by stained with crystal violet for 10 min and then washed by deionized water. The 6-well microplate was photographed and the number of colonies with more than 50 individual cells were counted using ImageJ software (U.S.A.). Each experiment was carried out for three times. Results were expressed as means±standard deviation.

[2] = test system: HCT-8/5-FU (5-FU-resistant strain of HCT-8); assay: MTT cytotoxicity assay on HCT-8/5-FU cells; assay type: cell-based, human; conditions: for effect on growth and proliferation (FIGS. 7A, 7B): 6.25-100 nM; for IC50: MTT, 48 h treatment
Description: as §1
(§3) In the cytotoxicity assay, exponentially growing cells of each cancer cell line were plated in 96-well microplate at a density of 5000 cells per well in 100 μL of culture medium and allowed to adhere for 24 h before treatment. Serial concentrations of RNA molecules obtained in Example 1 to 4 in a mixture containing a gene delivery carrier, i.e. Lipofectamine™ RNAiMAX Transfection Reagent (Thermo Fisher Scientific, U.S.A.) were then added to the cells. After treated for 48 h, MTT solution (50 μL per well, 1 mg/mL solution) was added to each well and incubated for 4 h at 37° C. Subsequently, 200 μL dimethyl sulfoxide (DMSO) were added and the optical densities of the resulting solutions were calorimetrically determined at 570 nm using a SpectraMax 190 microplate reader (Molecular Devices, Sunnyvale, CA, U.S.A). Dose-response curves were obtained, and the IC50 values were calculated by GraphPad Prism 5 (GraphPad, La Jolla, CA, USA). Each experiment was carried out for three times. IC50 results were expressed as means±standard deviation.

[3] = test system: HCT-8 human ileocecal colorectal adenocarcinoma cell line; assay: MTT cytotoxicity assay on HCT-8 cells; assay type: cell-based; conditions: for effect on growth and proliferation (FIGS. 7A, 7B) / IC50: HCT-8; for effect on growth and proliferation (FIGS. 7A, 7B): 6.25-100 nM; for IC50: MTT, 48 h treatment; for cell viability of HCT-8 cells (FIG. 6A): 50 nM, 48 h, vs control and RNAiMAX group
Description: as §1, §3

HCT-8 cells [4] = assay: Clonogenic assay on HCT-8 cells; assay type: cell-based, human; conditions: 50 nM, vs control group
Description: as §1, §2

LoVo cells [5] = assay: Wound-healing assay on LoVo cells; assay type: cell-based; conditions: 25 nM, vs control group
Description: as §1
as §2, with “wound-healing” for “clonogenic”, “500,000” for “1000”, “[…]” for “Single concentration”, “[…] A 1 mL bacteria-free pipette tip was used to make a cross-scratch at the bottom of 6-well microplate. The cells in the scratch were washed away using phosphor buffer solution and the 6-well microplate was photographed under a microscope. Single concentration of RNA molecules obtained in Example 1 to 4 in a mixture containing a gene delivery carrier, i.e. Lipofectamine™ RNAiMAX Transfection Reagent (Thermo Fisher Scientific, U.S.A.) were then added to the cells. The cells were then photographed under microscope at 24 and 48 h. ImageJ software was applied to quantify the area of wound created. Each experiment was carried out for three times. Results were expressed as means±standard deviation.” for “deviation.”

HCT-8 cells [6] = assay: Wound-healing assay on HCT-8 cells; assay type: cell-based, human; conditions: 50 nM, vs control group
Description: as §1
as §2, with “wound-healing” for “clonogenic”, “500,000” for “1000”, “[…]” for “Single concentration”, “[…] A 1 mL bacteria-free pipette tip was used to make a cross-scratch at the bottom of 6-well microplate. The cells in the scratch were washed away using phosphor buffer solution and the 6-well microplate was photographed under a microscope. Single concentration of RNA molecules obtained in Example 1 to 4 in a mixture containing a gene delivery carrier, i.e. Lipofectamine™ RNAiMAX Transfection Reagent (Thermo Fisher Scientific, U.S.A.) were then added to the cells. The cells were then photographed under microscope at 24 and 48 h. ImageJ software was applied to quantify the area of wound created. Each experiment was carried out for three times. Results were expressed as means±standard deviation.” for “deviation.”

[7] = test system: LoVo colorectal adenocarcinoma cell line; assay: MTT cytotoxicity assay on LoVo cells; assay type: cell-based; conditions: for effect on growth and proliferation (FIGS. 7A, 7B): 6.25-100 nM; for IC50: MTT, 48 h treatment
Description: as §1, §3

[8] = test system: LoVo/5-FU (5-FU-resistant strain of LoVo); assay: MTT cytotoxicity assay on LoVo/5-FU cells; assay type: cell-based; conditions: for effect on growth and proliferation (FIGS. 7A, 7B): 6.25-100 nM; for IC50: MTT, 48 h treatment
Description: as §1, §3

| Molecule | colony number, inhibition of proliferation (FIG. 8B) (LoVo cells [1]) | effect on growth and proliferation (FIGS. 7A, 7B) [2] | IC50 [2] | effect on growth and proliferation (FIGS. 7A, 7B) [3] | IC50 [3] | colony number, inhibition of proliferation (FIG. 8A) (HCT-8 cells [4]) | wound area, inhibition of migration (FIG. 9B) (LoVo cells [5]) | wound area, inhibition of migration (FIG. 9A) (HCT-8 cells [6]) | effect on growth and proliferation (FIGS. 7A, 7B) [7] | IC50 [7] | effect on growth and proliferation (FIGS. 7A, 7B) [8] | IC50 [8] | cell viability of HCT-8 cells (FIG. 6A) [3] | further results |
| --- | --- | --- | --- | --- | --- | --- | --- | --- | --- | --- | --- | --- | --- | --- |
| EC83-M1 mimic: modified EC83 dsRNA; antisense SEQ ID NO: 1 GCCGAAG[s^4U]GGCGAAAUCGGUAG, sense SEQ ID NO: 4 CUACCGAUUUCGCCACUUCGGC (antisense GCCGAAGUGGCGAAAUCGGUAG; antisense: RNA, [s4U] at 8, backbone not given here; sense: RNA, backbone not given here; tRNA-derived fragment mimic duplex) | significantly inhibit the proliferation | dose-dependent effect on inhibiting the growth and proliferation | 69.6 nM | dose-dependent effect on inhibiting the growth and proliferation | 77.9 nM | significantly inhibit the proliferation | significantly inhibit the migration | significantly inhibit the migration | dose-dependent effect on inhibiting the growth and proliferation | 43.6 nM | dose-dependent effect on inhibiting the growth and proliferation | 54.2 nM | – | – |
| EC83-M3 mimic: modified EC83 dsRNA; antisense SEQ ID NO: 3 GCCGAAG[s^4U]GGCGAAAUC[Gm]GUAG, sense SEQ ID NO: 6 CUACCGAUUUCGCCACUUCGGC (antisense GCCGAAGUGGCGAAAUCGGUAG; antisense: sugars from the 5' end r17 m1 r4, [s4U] at 8, backbone not given here; sense: RNA, backbone not given here; tRNA-derived fragment mimic duplex) | significantly inhibit the proliferation | dose-dependent effect on inhibiting the growth and proliferation | 72.2 nM | dose-dependent effect on inhibiting the growth and proliferation | 74.5 nM | significantly inhibit the proliferation | significantly inhibit the migration | significantly inhibit the migration | dose-dependent effect on inhibiting the growth and proliferation | 24.1 nM | dose-dependent effect on inhibiting the growth and proliferation | 23 nM | – | – |
| EC41 mimic: 22 bp dsRNA; antisense SEQ ID NO: 47 GGGUGAUUAGCUCAGCUGGGAG, sense SEQ ID NO: 141 CUCCCAGCUGAGCUAAUCACCC; 5′-t of tRNA-Val(UAC) (listed as RNA, chemistry not given here) [22 bp dsRNA; 5′-t of tRNA-Val(UAC)] | – | – | – | – | – | – | – | – | – | – | – | – | effective to colorectal cancer cells | – |
| EC85 mimic: 22 bp dsRNA; antisense SEQ ID NO: 91 GCGAAGGUGGCGGAAUUGGUAG, sense SEQ ID NO: 185 CUACCAAUUCCGCCACCUUCGC; 5′-t of tRNA-Leu(CAG) (listed as RNA, chemistry not given here) [22 bp dsRNA; 5′-t of tRNA-Leu(CAG)] | – | – | – | – | – | – | – | – | – | – | – | – | effective to colorectal cancer cells | – |
| EC42 mimic: 22 bp dsRNA; antisense SEQ ID NO: 48 UCGAUCCCGUCAUCACCCACCA, sense SEQ ID NO: 142 UGGUGGGUGAUGACGGGAUCGA; 3′-t of tRNA-Val(UAC) (listed as RNA, chemistry not given here) [22 bp dsRNA; 3′-t of tRNA-Val(UAC)] | – | – | – | – | – | – | – | – | – | – | – | – | effective to colorectal cancer cells | – |
| EC83 mimic: 22 bp dsRNA; antisense SEQ ID NO: 89 GCCGAAGUGGCGAAAUCGGUAG, sense SEQ ID NO: 183 CUACCGAUUUCGCCACUUCGGC; 5′-t of tRNA-Leu(CAA) (RNA, backbone not given here; tRNA-derived fragment mimic duplex) [22 bp dsRNA; 5′-t of tRNA-Leu(CAA)] | significantly inhibit the proliferation | dose-dependent effect on inhibiting the growth and proliferation | 63.4 nM | dose-dependent effect on inhibiting the growth and proliferation | 70.6 nM | significantly inhibit the proliferation | significantly inhibit the migration | significantly inhibit the migration | dose-dependent effect on inhibiting the growth and proliferation | 28.8 nM | dose-dependent effect on inhibiting the growth and proliferation | 29.5 nM | – | cytotoxicity ranking on HCT-8 cells (FIG. 6C) ([3]; among synthetic RNA molecules of Example 4): strongest cytotoxicity |
| EC86 mimic: 22 bp dsRNA; antisense SEQ ID NO: 92 UCAAGUCCCCCCCCUCGCACCA, sense SEQ ID NO: 186 UGGUGCGAGGGGGGGGACUUGA; 3′-t of tRNA-Leu(CAG) (listed as RNA, chemistry not given here) [22 bp dsRNA; 3′-t of tRNA-Leu(CAG)] | – | – | – | – | – | – | – | – | – | – | – | – | effective to colorectal cancer cells | – |
| O=c1[nH]cc(F)c(=O)[nH]1 [5-FU, fluorouracil, reference compound] | – | – | – | – | – | – | – | – | – | – | – | – | – | IC50 ([2]; Homo sapiens): 171000 nM; IC50 ([3]; Homo sapiens): 41400 nM; IC50 ([7]; Homo sapiens): 63900 nM; IC50 ([8]; Homo sapiens): 133000 nM |
| B1 | – | – | – | – | – | – | – | – | – | – | – | – | effective to colorectal cancer cells | – |
| B2 | – | – | – | – | – | – | – | – | – | – | – | – | effective to colorectal cancer cells | – |
